From PubChem BioAssay AID192 (DTP/NCI, 2004)
Inconclusive results and toxic doses are left out. Rule for the calls: active = survival T/C of 150% or more; inactive = T/C below 125% in these data.

System: BDF1 mice, B16 melanoma ip, median survival T/C
Experiment: NCI In Vivo Anticancer Drug Screen. Data for tumor model B16 Melanoma (intraperitoneal) in B6D2F1 (BDF1) mice
Settings: endpoint: median survival time, higher = longer survival
Outline: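 In this screen, activity was judged from survival or tumor size in treated versus vehicle-treated tumor-bearing mice, reported as T/C.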

[1] = dose: 100.0 mg/kg/injection, schedule: Q01DX009 (ip), vehicle: Klucel (hydroxypropylcellulose) (HPC)
[2] = dose: 200.0 mg/kg/injection, schedule: Q01DX009 (ip), vehicle: Klucel (hydroxypropylcellulose) (HPC)
[3] = dose: 100.0 mg/kg/injection, schedule: Q01DX009 (ip), vehicle: saline with Tween-80
[4] = dose: 200.0 mg/kg/injection, schedule: Q01DX009 (ip), vehicle: saline with Tween-80
[5] = dose: 400.0 mg/kg/injection, schedule: Q01DX009 (ip), vehicle: Klucel (hydroxypropylcellulose) (HPC)

Measured: T/C

Cc1cc(/C=C/c2cc[n+](C)c3ccccc23)c(O)c2ncccc12
inactive: dose: 3.0 mg/kg/injection, schedule: Q01DX009 (ip), vehicle: saline sonified 104 % of control | dose: 6.0 mg/kg/injection, schedule: Q01DX009 (ip), vehicle: saline sonified 97 % of control | dose: 12.0 mg/kg/injection, schedule: Q01DX009 (ip), vehicle: saline sonified 97 % of control | dose: 24.0 mg/kg/injection, schedule: Q01DX009 (ip), vehicle: saline sonified 100 % of control | dose: 48.0 mg/kg/injection, schedule: Q01DX009 (ip), vehicle: saline sonified 104 % of control

O=[N+]([O-])c1ccc2nc(-c3ccccc3)c(-c3ccccc3)nc2c1
inactive: [1] 102 % of control | [2] 88 % of control

O=C(Nc1cc(C(F)(F)F)ccc1Cl)c1ccc(Cl)cc1Cl
inactive: [3] 88 % of control | [4] 88 % of control

CCCCCCCCCCCCCCCC(=O)N(CCC#N)CCCCCCCCCN(CCC#N)C(=O)CCCCCCCCCCCCCCC
inactive: dose: 12.5 mg/kg/injection, schedule: Q04DX003 (ip), vehicle: Klucel (hydroxypropylcellulose) (HPC) 88 % of control | dose: 25.0 mg/kg/injection, schedule: Q04DX003 (ip), vehicle: Klucel (hydroxypropylcellulose) (HPC) 90 % of control

O=P(O)(O)OCCCl
inactive: dose: 100.0 mg/kg/injection, schedule: Q04DX003 (ip), vehicle: Klucel (hydroxypropylcellulose) (HPC) 100 % of control | dose: 200.0 mg/kg/injection, schedule: Q04DX003 (ip), vehicle: Klucel (hydroxypropylcellulose) (HPC) 94 % of control | dose: 400.0 mg/kg/injection, schedule: Q04DX003 (ip), vehicle: Klucel (hydroxypropylcellulose) (HPC) 103 % of control

Cc1c(Cl)cccc1NC(=O)c1ccccc1Cl
inactive: [1] 100 % of control | [2] 93 % of control | [5] 94 % of control

O=C1[O][Hg][c]2cccc3cccc1c23
inactive: dose: 1.65 mg/kg/injection, schedule: Q04DX003 (ip), vehicle: saline with Tween-80 106 % of control | dose: 2.5 mg/kg/injection, schedule: Q01DX009 (ip), vehicle: saline with Tween-80 88 % of control | dose: 2.5 mg/kg/injection, schedule: Q04DX003 (ip), vehicle: saline with Tween-80 100 % of control | dose: 5.0 mg/kg/injection, schedule: Q01DX009 (ip), vehicle: saline with Tween-80 86 % of control | dose: 10.0 mg/kg/injection, schedule: Q04DX003 (ip), vehicle: saline with Tween-80 123 % of control

CN(C)c1ccc2cc(S(=O)(=O)O)cc(O)c2c1
inactive: [3] 97 % of control | [4] 94 % of control

Cn1c(N)c(N=O)c(=O)n(C)c1=O
inactive: dose: 90.0 mg/kg/injection, schedule: Q01DX009 (ip), vehicle: saline with Tween-80 100 % of control | dose: 180.0 mg/kg/injection, schedule: Q01DX009 (ip), vehicle: saline with Tween-80 90 % of control | dose: 360.0 mg/kg/injection, schedule: Q01DX009 (ip), vehicle: saline with Tween-80 100 % of control

CCOc1ccc2cc(S(=O)(=O)O)ccc2c1N
inactive: [3] 95 % of control | [4] 87 % of control | dose: 400.0 mg/kg/injection, schedule: Q01DX009 (ip), vehicle: saline with Tween-80 95 % of control

C/C(=C\C(=O)Nc1ncn[nH]1)Nc1ncn[nH]1
inactive: dose: 50.0 mg/kg/injection, schedule: Q01DX009 (ip), vehicle: Klucel (hydroxypropylcellulose) (HPC) 106 % of control | [1] 102 % of control | [2] 90 % of control | [5] 101 % of control

Cc1ccc(Cl)cc1N=Cc1ccccc1O
inactive: dose: 100.0 mg/kg/injection, schedule: Q04DX003 (ip), vehicle: saline with Tween-80 104 % of control | dose: 200.0 mg/kg/injection, schedule: Q04DX003 (ip), vehicle: saline with Tween-80 100 % of control | dose: 400.0 mg/kg/injection, schedule: Q04DX003 (ip), vehicle: saline with Tween-80 104 % of control

Cc1nc2c(O)ccc(O)c2nc1C
inactive: dose: 1.56 mg/kg/injection, schedule: Q01DX009 (ip), vehicle: saline with Tween-80 106 % of control | dose: 3.13 mg/kg/injection, schedule: Q01DX009 (ip), vehicle: saline with Tween-80 102 % of control | dose: 6.25 mg/kg/injection, schedule: Q01DX009 (ip), vehicle: saline with Tween-80 100 % of control | dose: 50.0 mg/kg/injection, schedule: Q01DX009 (ip), vehicle: saline with Tween-80 89 % of control

c1ccc2cc3c(ccc4ccccc43)cc2c1
inactive: dose: 50.0 mg/kg/injection, schedule: Q01DX009 (ip), vehicle: distilled water + Tween-80 109 % of control | dose: 100.0 mg/kg/injection, schedule: Q01DX009 (ip), vehicle: distilled water + Tween-80 103 % of control | dose: 200.0 mg/kg/injection, schedule: Q01DX009 (ip), vehicle: distilled water + Tween-80 100 % of control
